How the values were obtained:
C57B1/6 mice = assay: Glucose lowering effects in oral glucose tolerance test (OGTT); type: in vivo, mouse; details: for Glucose 20 Minute / Glucose 40 Minute / Glucose 60 Minute / Baseline Adjusted AUC (glucose) / Glucose Cmax / Glucose Tmax / Glucose 0 Minute: OGTT, 10 mg/kg oral, Mean ± SEM; for Glucose 20 Minute: 20 min after dextrose; for Glucose 40 Minute: 40 min after dextrose; for Glucose 60 Minute: 60 min after dextrose; for Glucose 0 Minute: baseline before 3 g/kg dextrose
Experimental: The test compound is formulated by adding a vehicle of 1% hydroxyethylcellulose, 0.25% Tween® 80 w/antifoam 0.05% to preweighed test compound to make a 1 mg/ml solution. The mixture is probe sonicated for approximately 1 minute. A stir bar is added, and the resulting suspension is stirred continuously throughout dosing.
One of two sets of single housed C57B1/6 mice are weighed and body weights used to determine study groups (n=5), within a working range of 26-30 g. After grouping, the mice are orally gavaged with 10 ml/kg test compound preparation or vehicle, thirty seconds apart. […] Both sets of mice are then fasted overnight by removing access to food, late afternoon before test day. The following morning, the remaining mice, are weighed and bled (via tail snip) for glucose. Study groups (n=5) are determined using fasted glucose values, within a working range of 80-100 mg/dl. After grouping, the mice are orally gavaged using the same protocol as the previous day.
At eight and eighteen hours after each respective compound treatment is started, a baseline blood sample is taken for measuring glucose (from the first animal). The animal is then immediately given an oral dose of 50% dextrose (Hospira®) at 3 g/kg. Blood samples are taken for glucose, exactly thirty seconds apart, by tail vein so that blood is collected in each animal at 20, 40 and 60 minutes after the dextrose dose.

human SGLT1 = molecular target: T1, human SGLT1 (Homo sapiens, UniProt P13866); assay: Sodium-dependent 14C-AMG uptake assay in CHO-K1 cells expressing human SGLT1; type: cell-based; details: n=9
T1 sequence (P13866 1-664): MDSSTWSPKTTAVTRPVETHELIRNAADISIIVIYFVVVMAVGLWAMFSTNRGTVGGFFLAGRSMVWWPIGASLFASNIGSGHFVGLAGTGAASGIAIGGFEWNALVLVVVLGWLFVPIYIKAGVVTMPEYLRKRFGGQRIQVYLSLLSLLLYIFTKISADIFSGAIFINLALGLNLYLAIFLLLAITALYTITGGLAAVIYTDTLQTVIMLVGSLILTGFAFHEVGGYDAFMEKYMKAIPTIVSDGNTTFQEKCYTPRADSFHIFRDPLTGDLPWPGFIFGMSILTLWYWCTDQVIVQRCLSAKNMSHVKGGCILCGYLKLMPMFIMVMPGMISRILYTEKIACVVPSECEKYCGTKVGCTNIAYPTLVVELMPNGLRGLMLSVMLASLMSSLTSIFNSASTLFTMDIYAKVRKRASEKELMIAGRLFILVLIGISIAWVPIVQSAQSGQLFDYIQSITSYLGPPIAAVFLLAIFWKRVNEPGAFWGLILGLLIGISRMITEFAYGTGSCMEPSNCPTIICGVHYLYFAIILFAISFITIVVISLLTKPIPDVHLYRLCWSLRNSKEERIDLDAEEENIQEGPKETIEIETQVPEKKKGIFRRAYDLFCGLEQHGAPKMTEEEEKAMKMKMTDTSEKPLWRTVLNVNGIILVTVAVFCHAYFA
Description: (§1) The cDNA encoding human SGLT1 (slc5a1, NM_000343) and mouse SGLT1 (slc5a1, NM_019810.4) are purchased from Openbiosystems. The cDNA is cloned into pcDNA3.1+ for mammalian expression and is stably transfected into Chinese hamster ovary (CHO)-K1 cells using standard mammalian transfection procedures. An SGLT-expressing sub-clone of each over-expressing cell line is selected based on resistance to neomycin (Geneticin, Invitrogen) and activity in the ^14C-a-methyl-D-glucopyranoside (^14C-AMG) uptake assay (see below). Stable SGLT-expressing cells are maintained using standard cell culture techniques.
(§2) The SGLT activity is measured as sodium-dependent ^14C-AMG uptake in the above cell lines described as follows. One hundred […] of culture medium containing 30,000 cells are seeded to each well of a 96-well BioCoat poly-D-lysine plate (Becton Dickson) and cultured at 37° C. overnight. The culture medium is aspirated and cells are washed twice with […] of Reaction Buffer (140 mM NaCl, 2 mM KCl, 1 mM CaCl2, MgCl2, and 14 mM N-2-hydroethylpiperrazine-N′-2-ethanesulfonic acid (Hepes), pH 7.5). The excess buffer is tapped out onto paper towels. Thirty-five […] of Reaction Buffer are added to each well. […] After mixing, the scintillation signal in the plate is counted in a MicroBeta (PerkinElmer). […]

mouse SGLT1 = molecular target: T2, mouse SGLT1 (Mus musculus, UniProt Q8C3K6); assay: Sodium-dependent 14C-AMG uptake assay in CHO-K1 cells expressing mouse SGLT1; type: cell-based; details: n=6
T2 sequence (Q8C3K6 1-665): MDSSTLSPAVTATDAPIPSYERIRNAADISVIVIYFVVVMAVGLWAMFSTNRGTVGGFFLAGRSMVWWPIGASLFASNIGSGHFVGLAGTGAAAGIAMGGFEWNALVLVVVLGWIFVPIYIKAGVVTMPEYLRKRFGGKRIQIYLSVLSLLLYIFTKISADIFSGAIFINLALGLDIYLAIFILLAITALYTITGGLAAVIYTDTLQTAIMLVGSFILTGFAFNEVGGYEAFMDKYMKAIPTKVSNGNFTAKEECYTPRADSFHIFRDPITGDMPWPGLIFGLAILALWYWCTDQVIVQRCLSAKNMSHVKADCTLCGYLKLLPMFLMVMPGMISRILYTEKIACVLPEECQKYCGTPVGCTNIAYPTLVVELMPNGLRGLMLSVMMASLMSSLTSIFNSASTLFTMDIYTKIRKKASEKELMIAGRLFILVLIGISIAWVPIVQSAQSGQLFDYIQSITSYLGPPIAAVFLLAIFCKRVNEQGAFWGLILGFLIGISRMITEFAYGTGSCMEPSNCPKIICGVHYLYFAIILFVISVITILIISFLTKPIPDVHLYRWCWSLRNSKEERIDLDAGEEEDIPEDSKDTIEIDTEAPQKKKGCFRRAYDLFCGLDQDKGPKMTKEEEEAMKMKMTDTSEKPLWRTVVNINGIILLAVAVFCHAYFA
Description: as §1, §2

`Cc1cccc2c1c(Cc1ccc(/C=C/CCN3CCCC4(CCN(C(=O)CNC(=O)NCC(C)C)CC4)C3)cc1)cn2[C@@H]1O[C@H](CO)[C@@H](O)[C@H](O)[C@H]1O` [Example 1, 1-isobutyl-3-[2-[4-[(E)-4-[4-[[4-methyl-1-[(2R,3R,4S,5S,6R)-3,4,5-trihydroxy-6-(hydroxymethyl)tetrahydropyran-2-yl]indol-3-yl]methyl]phenyl]but-3-enyl]-4,9-diazaspiro[5.5]undecan-9-yl]-2-oxo-ethyl]urea] was tested, and the “Glucose 20 Minute” value (C57B1/6 mice; 8 hrs post dose) was 119.1 ± 11.4 mg/dL, the “Glucose 40 Minute” value (C57B1/6 mice; 8 hrs post dose) was 127.7 ± 8.32 mg/dL and the “Glucose 60 Minute” value (C57B1/6 mice; 8 hrs post dose) was 132.6 ± 8.85 mg/dL. The “Baseline Adjusted AUC (glucose)” value (C57B1/6 mice; 8 hrs post dose) was 2752 ± 507 mg/dL, the “Glucose Cmax” value (C57B1/6 mice; 8 hrs post dose) was 134.7 ± 8.31 mg/dL and the “Glucose Tmax” value (C57B1/6 mice; 8 hrs post dose) was 48 ± 8 min. For the same compound, the “Glucose 0 Minute” value (C57B1/6 mice; 8 hrs post dose) was 70.2 ± 5.47 mg/dL, the “Glucose 20 Minute” value (C57B1/6 mice; 18 hrs post dose) was 116.1 ± 2.71 mg/dL and the “Glucose 40 Minute” value (C57B1/6 mice; 18 hrs post dose) was 130.7 ± 4.47 mg/dL. The “Glucose 60 Minute” value (C57B1/6 mice; 18 hrs post dose) was 124.1 ± 1.42 mg/dL, the “Baseline Adjusted AUC (glucose)” value (C57B1/6 mice; 18 hrs post dose) was 1792 ± 254 mg/dL and the “Glucose Cmax” value (C57B1/6 mice; 18 hrs post dose) was 132.7 ± 3.27 mg/dL. For the same compound, the “Glucose Tmax” value (C57B1/6 mice; 18 hrs post dose) was 48 ± 4.9 min, the “Glucose 0 Minute” value (C57B1/6 mice; 18 hrs post dose) was 87.7 ± 3.36 mg/dL and the “glucose excursion after oral bolus of 50% dextrose” value (C57B1/6 mice; normal glycemic C57B1/6 mouse, eight or eighteen hours after administration) was “decrease”. It also gave an IC50 (human SGLT1) of 17.4 ± 14.6 nM and an IC50 (mouse SGLT1) of 13.6 ± 7.3 nM.
